Assay results as given in article PMC5469451, “Identification of compounds that suppress Toxoplasma gondii tachyzoites and bradyzoites” (PLoS ONE, 2017).

Experiments:
[1] = tested on: PruΔku80Δhxgprt in HFF cells; assay: Immunofluorescence-based assay on spontaneously induced bradyzoites; type: cell-based, Toxoplasma gondii; conditions: 10, 2, 0.4, 0.08 μM, 48 h
Method: PruΔku80Δhxgprt, which expresses GFP under the control of a bradyzoite-specific gene LDH2 promoter, [13] was used. HFF host cells were seeded to a 96-well glass bottom plate (MGB096-1-2-LG-L, Brooks Automation, MA, USA) and cultured until confluent. Parasites were freshly lysed by passing them through 27 G needles and were purified by passing them through a 5-μm-pore filter. Five thousand parasites in 100 μL of culture medium were added and mixed with an equal volume of compound-containing medium to give final drug concentrations of 10, 2, 0.4, and 0.08 μM in 0.2% DMSO. After incubation at room temperature for 10 min, the infected host cells were incubated for 48 h at 37°C in a 5% CO2 incubator. After incubation, the cells were fixed with 4% paraformaldehyde in PBS for 20 min, quenched, and permeabilized with 0.2 M glycine and 0.2% TritonX-100 in PBS for 20 min, and then blocked with 3% BSA and 0.1% Tween 20 in PBS (blocking buffer); each procedure was performed at room temperature and was followed by washes with PBS three times. All parasites were stained with an anti-Toxoplasma mouse antibody (antisera produced in ME49-infected mice), and bradyzoites were detected with an anti-GFP rabbit monoclonal antibody (Life Technologies). Secondary antibodies for mouse (Alexa633 conjugated) and rabbit (Alexa488 conjugated) and DAPI were used to develop the fluorescent signal. Stained cells on 96-well plates were analyzed with a CompuCyte iCys Research Imaging Cytometer (Beckman Coulter, IN, USA).

[2] = tested on: PLK/DLUC_1C9 in vitro-induced bradyzoites in HFF cells; assay: Effect on in vitro-induced bradyzoites (Dual-Glo firefly luciferase, BAG1 promoter); type: cell-based, Toxoplasma gondii; conditions: 3 days bradyzoite induction, then 10, 5, 2.5, 1 μM for 48 h; relative to DMSO
Method: To measure the effect of tanshinone IIA and hydroxyzine on in vitro-induced bradyzoites, we used PLK/DLUC_ 1C9 parasites and the Dual-Glo luciferase assay. Briefly, HFF cells in 96-well plates were infected with 1 x 10^4 parasites/well and incubated for 3 days with ambient CO2 condition in DMEM containing 25 mM HEPES pH 8.1 and 1% FBS to induce bradyzoites. Induced bradyzoites were treated with 10, 5, 2.5, and 1 μM compounds under bradyzoite-inducing conditions. After 48 h, luciferase activities were measured by using the Dual-Glo assay system (Promega) and normalized by host cell number.

In the case of `CCc1nc(N)nc(N)c1-c1ccc(Cl)cc1` [Pyrimethamine], the “Parasite growth (total parasite vacuole size)” value [1] is reported as “reduced parasite growth in a concentration-dependent manner”, the “Bradyzoite differentiation (GFP-positive PV rate)” value ([1]; compared with DMSO) is reported as “induced bradyzoite differentiation” and the “Bradyzoite number (firefly luciferase under BAG1 promoter, normalized by host cell number)” value [2] is reported as “cannot reduce bradyzoite numbers”.
